# Results taken from ChEMBL document CHEMBL3576765, “Rubrumazines A-C, Indolediketopiperazines of the Isoechinulin Class from Eurotium rubrum MA-150, a Fungus Obtained from Marine Mangrove-Derived Rhizospheric Soil” (J Nat Prod, 2015).
# Tested on: not listed separately
# Assay: (§1) Toxicity in brine shrimp assessed as mortality
# Assay type: organism-based
# Conditions: artemia salina, in vivo; read-out: LD50 (the source's name); call rule not given here
row,Compound,LC50
1,C[C@@H]1NC(=O)[C@H](Cc2c[nH]c3ccccc23)NC1=O,25.5 µM
2,C=CC(C)(C)c1[nH]c2c(C[C@H](O)C(C)(C)O)cccc2c1/C=C1\NC(=O)[C@H](C)NC1=O,2.4 µM
3,C=CC(C)(C)c1[nH]c2c(C[C@H](O)C(C)(C)OC)cccc2c1/C=C1\NC(=O)[C@H](C)NC1=O,29.8 µM
4,C=CC(C)(C)c1[nH]c2ccccc2c1/C=C1\NC(=O)C(=O)NC1=O,3.9 µM
5,C=CC(C)(C)c1[nH]c2c(C[C@H](O)C(C)(C)O)cccc2c1C[C@@H]1NC(=O)[C@H](C)NC1=O,16.5 µM
6,C=CC(C)(C)c1[nH]c2c(CC=C(C)C)cc(CC=C(C)C)c(CC=C(C)C)c2c1/C=C1\NC(=O)[C@H](C)NC1=O,3.5 µM
7,C=CC(C)(C)c1[nH]c2ccccc2c1/C=C1\NC(=O)C2(C=C3c4cc(O)cc(O)c4C(=O)c4c(O)cc(C)c(c43)O2)NC1=O (stereo unspecified),16.7 µM
8,C=CC(C)(C)c1[nH]c2ccccc2c1/C=C1\NC(=O)C2(C=C3c4cc(O)cc(OC)c4C(=O)c4c(O)cc(C)c(c43)O2)NC1=O (stereo unspecified),9.8 µM
9,COc1cc2c(c(OC)c1OC)-c1ccc(OC)c(=O)cc1[C@@H](NC(C)=O)CC2 [COLCHICINE],19.4 µM
10,C=CC(C)(C)c1[nH]c2ccc(CC=C(C)C)cc2c1/C=C1\NC(=O)[C@H](C)NC1=O [ISOECHINULIN A],11.7 µM
11,C=CC(C)(C)c1[nH]c2ccc(CC(=O)C(C)C)cc2c1/C=C1\NC(=O)[C@H](C)NC1=O [VARIECOLORIN E],24 µM
12,C=CC(C)(C)c1[nH]c2c(CC=C(C)C)cccc2c1/C=C1\NC(=O)[C@H](C)NC1=O [VARIECOLORIN G],22 µM

# Tested on: Artemia salina
# Assay: as §1
# Assay type: organism-based
# Conditions: in vivo
row,Compound,LD50
1,C=CC(C)(C)c1[nH]c2c(CC=C(C)C)cc(CC=C(C)C)cc2c1C[C@@H]1NC(=O)[C@H](C)NC1=O [ECHINULIN],Not Active
2,C=CC(C)(C)c1[nH]c2ccc(CC=C(C)C)cc2c1C[C@@H]1NC(=O)[C@H](C)NC1=O [TARDIOXOPIPERAZINE A],Not Active
3,C=CC(C)(C)c1[nH]c2ccc(CC=C(C)C)c(CC=C(C)C)c2c1C[C@@H]1NC(=O)[C@H](C)NC1=O [VARIECOLORIN L],Not Active

# Tested on: Vibrio alginolyticus
# Assay: Antibacterial activity against Vibrio alginolyticus by well diffusion method
# Assay type: functional
# Conditions: not given
row,MIC,Compound
1,4 µg/mL,O=C(N[C@H](CO)[C@H](O)c1ccc([N+](=O)[O-])cc1)C(Cl)Cl [CHLORAMPHENICOL]
